# Laboratory results as given in patent publication US7141541B1, “Use of peptides” (University Court of the University of Dundee, priority 1999, dated 2006).
# Where a SMILES comes first, the peptide text is derived from it. Where no end group is shown, it is not given here. The star is where a group is joined. Biotin = O=C1N[C@H]2[C@H](CS[C@H]2CCCCC(=O)*)N1; Cbz = O=C(OCc1ccccc1)*; CH2F = FC*
# B1: Human eIF4G(569-580)Y416AL421AL422A-Penetratin (peptide)
# peptide: KKRADREFAAGFRQIKIWFQNRRMKWKK
# modifications: not fully specified (N-terminus)
# notes: Order of pieces from the printed name; also called Hu4G YLL-AAA; triple alanine human eIF4G peptide
# Experiments:
# serum deprived cells = assay: protection from peptide-induced cell death by serum / MAP kinase activation (FIG. 15); assay type: cell-based
# Description: FIG. 15 illustrates that the acute activation of MAP kinase protects cells from 4E-binding peptide induced cell death; and
# In the presence of 10% ECS, cells were resistant to treatment with 20 μm of the peptides. Cells only died if they were serum deprived for 72 hours (more than 85%) within 15 minutes after the peptide had been applied (see FIG. 15). However, if serum deprived cells (72 h) were pre-treated with 10% FCS or with 20 nM PMA (phorbol ester) for 15 minutes before the peptides were added, the cells survived the subsequent peptide treatment (60–70%).
# Furthermore, if the serum deprived cells were instead pre-treated with the MAPK inhibitor PD098059 for 1 hour before 10% FCS was added, approximately 80–90% of the cells died.
# MRC5 cells [1] = assay: peptide-induced cell death (apoptosis) in MRC5 cells; assay type: cell-based; settings: for biological effect (apoptosis): MRC5 cells / cultured mammalian cells
# From the text: FIG. 8 is a table illustrating the induction of apoptosis by eIF4G peptides in MRC5 cells;
# FIG. 9 is a summary of the results of inhibition of eIF4G(413-424)-induced apoptosis;
# MRC5 cells [2] = assay: cell survival by MTT assay; assay type: cell-based; settings: for cell death / cell viability: various concentrations, 72 h serum-starved MRC5 cells, FIGS. 13b,c,d
# Description: FIGS. 13a–d are graphs showing cell survival (% of control, untreated cells) as measured by MTT assay. a) Lane 1: 10 μM BP2 peptide added to serum-fed cells or Lane 2, 3, 4: 10 μM BP2 peptide added to 24 h, 48 h or 72 h serum-starved cells respectively. Lane 5: 10 μM BP2 YLL-AAA added to 72 h serum starved cells. Lane 6: 72 h serum starved cells incubated in 10% serum for 1 h prior to addition to 10 μM BP2 peptide. Lane 7: 72 h serum starved cells incubated with 100 μg/ml cycloheximide followed by a 1 h incubation with 10% serum prior to the addition of 10 μM BP2 peptide. In all cases the cells were then further incubated for 1 h in 0.1 mg/ml MTT. Cells were lysed in DMSO and absorbance was measured at […]. b–d) Varying concentrations of peptides were added to 72 h serum starved MRC5 cells. After 30 min incubation the cells were then further incubated for 1 h in 0.1 mg/ml MTT. Cells were lysed in DMSO and absorbance was measured at 570 nm.
# MRC5 cells [3] = assay: [35S]methionine incorporation into protein; assay type: cell-based; settings: serum deprived cells, 30 minutes
# Description: (§1) FIG. 16 illustrates that eIF4E binding peptide cell death is not through eIF4E's known role in mRNA translation. a) 72 h serum-starved MRC5 cells were treated with 100 μg/ml and 10 μg/ml cylcoheximide, 1 μg/ml and 0.1 μg/ml pactamycine or 10 μM Hu4G peptide for 2 h prior to a MTT assay. Cells were pulsed labelled with [^35S]methionine for 30 min after addition of the inhibitors/peptide. The incorporation of [^35S]methionine into protein was determined following hot trichloroacetic acid precipitation. b) 72 h serum-starved MRC5 cells were treated with 100 μg/ml cycloheximide (Chx), 1 μg/ml pactamycine (Pact) or c) MRC5 cells which had been starved of serum for 72 h were pre-incubated with 100 μg/ml cycloheximide or 1 μg/ml pactamycine for 30 min prior to addition of 10 μM Hu4G peptide. Cells were then further incubated for 1.5 h prior to a MTT assay. Results from three independent experiments (+/− SEM).
# Serum deprived cells were treated with the general translation inhibitors Cyclohexamide or Pactamycin at indicated concentrations or the H4G peptide in the presence of 35S-Met for 30 minutes (see FIGS. 16a,b). Cells were lysed and the amount of translation was estimated by counting incorporated 35S-Met in precipitated protein fractions.
# MRC5 cells [4] = assay: MTT assay with general translation inhibitors (FIG. 16); assay type: cell-based; settings: for protection against the effect of the Hu4G peptide: pre-incubation 30 min prior to 10 μM Hu4G peptide; for cell killing: serum deprived cells
# Description: as §1
# recombinant human eIF4E [5] = target: recombinant human eIF4E (Homo sapiens, UniProt P06730); assay: in vitro binding (pull-down) assay with eIF4E; settings: for interaction with human eIF4E: FIG. 12b(i), 1 μg recombinant eIF4E, 0.2 mM biotinylated peptide, 1 h at 4° C.
# Chain of recombinant human eIF4E (Homo sapiens, UniProt P06730) (P06730 whole entry): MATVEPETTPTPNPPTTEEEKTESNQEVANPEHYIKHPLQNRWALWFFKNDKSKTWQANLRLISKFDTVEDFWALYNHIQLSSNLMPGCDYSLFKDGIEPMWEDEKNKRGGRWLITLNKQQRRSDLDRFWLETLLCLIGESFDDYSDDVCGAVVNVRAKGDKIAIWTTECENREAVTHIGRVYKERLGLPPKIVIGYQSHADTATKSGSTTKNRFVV
# Description: (§2) Sequences of biotinylated, penetratin-linked peptides. U=Norvaline, a substitution for cysteine. Conserved residues that are important in binding to eIF4E are underlined. b). In vitro binding assay. i) 1 μg recombinant eIF4E was incubated with 0.2 mM biotinylated peptides in a total volume of 50 μl wash buffer (1×PBS/250 mM Kcl) for 1 h at 4° C. ii) 0.2 mM Hu4G or Hu4G YLL-AAA was incubated with 200 μg MRC5 cell lysate for 1 h at 4° C. in a total volume of 50 μl wash buffer. In all cases the biotinylated peptides and associated proteins were pulled down using streptavidin agarose. The proteins were separated by SDS PAGE and subjected to Western blotting using anti-eIF4E antibody. Detection was by ECL;
# In order to study directly the role of eIF4E in cell transformation, a series of biotinylated synthetic peptides (Peptides synthesised by Cyclacel) corresponding to the eIF4E interacting domain (binding motif) of human eIF4G, and wheat eIF4G and alanine substituted peptides thereof were synthesised (see FIG. 12a) and tested for their capacity to interact with ^35S-Met labelled in vitro translated human eIF4E (NB. Peptides BP1 and BP1 YLM-AAA were not biotinylated). Peptides were coupled to streptavidin coated agarose beads by a N-terminus linked biotin group and washed in PBS/0.2% Tween 3× before being incubated for 1 hour at +4° C. with in vitro translated human eIF4E. Beads were washed as above and boiled for 5 min. in SDS loading buffer before the peptide bound proteins were separated on a 10% SDS gel. The bands were visualised by autoradiography.
# [6] = test system: HaCaT, Swiss 3T3, RATI and IIeLa cells; assay: cell survival in other cell-types; assay type: cell-based; settings: results not shown
# MRC5 cells [7] = assay: mitochondrial permeability transition (JC1 dye, confocal microscopy); assay type: cell-based; settings: 10 μM peptide, serum-starved MRC5 cells
# Description: (§3) MRC5 cells were incubated with 10 μM Hu4G peptide for 10 min. Cells visualised with fluorescein by fluorescence microscopy. […] 80% of cells incubated with the 10 μM Hu4G peptide fluoresced positive. d) Images of DAPI-stained MRC5 cells incubated with either 20 μM Hu4G or Hu4G YLL-AAA peptide for 40 min. Arrows indicate the position of a cell with either a condensed nucleus (top right) or a nucleus with a punctate appearance (bottom left). e) Visualisation of effects on the MPT. Serum-starved MRC5 cells were loaded with 0.1 μM JCl for 30 min prior to addition of 10 μM peptide. Changes in mitochondrial permeability were viewed by laser scanning confocal microscopy (krypton/argon laser) using identical setting. Green channel: excitation 488 nm/emission 522 nm. Red channel: excitation 568 nm/emission 585 nm. Channels were collected separately to avoid cross over. Images were taken 5 min after addition of the peptide;
# An early event considered decisive in apoptosis is the opening of the mitochondrial permeability transition (MPT) pore (20–22). To characterise further the eIF4E-binding peptide-induced cell death, the development of the MPT was investigated in living MRC5 cells loaded with the fluorescent dye, JC1 (21).
# MRC5 cells [8] = assay: TUNEL analysis; assay type: cell-based; settings: 10 μM peptide
# Description: as §3
# [9] = target: T1, eIF4E in MRC5 cell lysate (Homo sapiens, UniProt P06730); assay: pull-down of eIF4E from MRC5 cell lysate; assay type: binding; settings: 0.2 mM peptide, 200 μg MRC5 cell lysate, 1 h at 4° C.
# T1 construct: endogenous in cells; host or cells: MRC5
# T1 sequence (P06730 whole entry): as above
# Description: as §2
# [10] = test system: cap-dependent translation initiation; assay: in vitro translation assay, cap-dependent; assay type: biochemical
# [11] = test system: cap-independent translation initiation; assay: in vitro translation assay, cap-independent; assay type: biochemical
# recombinant human eIF4E [12] = target: T2, recombinant human eIF4E (human, UniProt P06730 1-217, limits assumed); assay: in vitro pull-down of recombinant human eIF4E (FIG. 5)
# T2 construct: also called in vitro translated human eIF4E; eukaryotic initiation factor 4E
# T2 sequence (P06730 whole entry): as above
# recombinant human eIF4E [13] = target: T2, recombinant human eIF4E; assay: streptavidin agarose pull-down with biotinylated peptide
# Description: as §2, with “FIG. 12 illustrates that eIF4E-binding peptides leads to rapid, dose-dependent, cell death. a). Sequences” for “Sequences”, “µg” for “μg”, “µl” for “μl”
molecule,measurement,setting,value
"COc1cccc(-c2cc(=O)c3ccccc3o2)c1N [PD098059, reference compound]",cells died,serum deprived cells; serum deprived cells pre-treated for 1 hour before 10% FCS was added,80–90%
same,effect on serum induced resistance to the peptides,MRC5 cells [1]; pre-treatment with the MEK inhibitor,serum induced resistance could be inhibited
CCCCCCCCCCCCCC(=O)O[C@@H]1[C@@H](C)[C@@]2(O)[C@@H](C=C(CO)C[C@]3(O)C(=O)C(C)=C[C@@H]23)[C@@H]2C(C)(C)[C@]12OC(C)=O [PMA],cells survived the subsequent peptide treatment,serum deprived cells; serum deprived cells (72 h) pre-treated with 20 nM for 15 minutes,60–70%
"COC(=O)C[C@H](NC(=O)[C@H](C)NC(=O)[C@@H](NC(=O)OCc1ccccc1)C(C)C)C(=O)CF [ZVAD.fmk, reference compound] (Cbz-Val-Ala-Asp(OMe)-CH2F)",effect of pre-treatment on peptide-induced cell death,"MRC5 cells [1]; MRC5 cells, results not shown",did not affect peptide-induced cell death
C[C@@H]1C[C@@H]([C@H](O)CC2CC(=O)NC(=O)C2)C(=O)[C@@H](C)C1 [cycloheximide],effect on protective effect of serum,"MRC5 cells [2]; pre-incubation with 100 μg/ml, then 10% serum 1 h, then 10 μM BP2 peptide",could not be inhibited
same,incorporation of 35S-Met (translation),MRC5 cells [3],block translation
same,protection against the effect of the Hu4G peptide,MRC5 cells [4],did not result in any protection
same,cell killing,MRC5 cells [4],do not kill the cells
CC(=O)c1cccc(N[C@H]2[C@H](N)[C@@](NC(=O)N(C)C)([C@H](C)O)[C@@](C)(O)[C@@]2(O)COC(=O)c2c(C)cccc2O)c1 [pactamycin],incorporation of 35S-Met (translation),MRC5 cells [3],block translation
same,protection against the effect of the Hu4G peptide,MRC5 cells [4],did not result in any protection
same,cell killing,MRC5 cells [4],do not kill the cells
"Hu4G Y-A: singly alanine-substituted, penetratin-linked human eIF4G peptide (KKRADREFLLGFRQIKIWFQNRRMKWKK)",cell death / cell viability,MRC5 cells [2],reduced capacity to induce cell death
same,interaction with human eIF4E,recombinant human eIF4E [5],lower binding affinity
same,biological effect (apoptosis),MRC5 cells [1]; FIG. 8,intermediate biological effect
"Hu4G YLL-AAA: triple alanine substituted, penetratin-linked human eIF4G peptide, unable to bind eIF4E (KKRADREFAAGFRQIKIWFQNRRMKWKK)",cell survival,[6],no effect on cell survival
same,interaction with human eIF4E,recombinant human eIF4E [5],did not interact with eIF4E
same,biological effect (apoptosis),MRC5 cells [1]; FIG. 8,did not cause the observed biological effect (apoptosis)
same,changes in JC1 fluorescence (MPT pore opening),MRC5 cells [7],No changes in florescence were observed
same,TUNEL signal,MRC5 cells [8],No signal was observed
same,binding of eIF4E in cell lysates,[9],did not
RVRYSRDQLLDL (listed as Triticum aestivum) [wheat eIF4G(62-73)],inhibition of cap-dependent translation initiation in vitro,[10],found to inhibit cap-dependent translation initiation
same,inhibition of cap-independent translation initiation in vitro,[11],not cap-independent translation initiation
same,binding to recombinant human eIF4E in vitro,"recombinant human eIF4E [5]; FIG. 4, FIG. 5",bound to and pulled down more recombinant human eIF4F in vitro than human eIF4G(569-580) did
"W4G: biotinylated, penetratin-linked peptide of the eIF4E binding motif of wheat eIF4G (Biotin-RVRYSRDQLLDLRQIKIWFQNRRMKWKK)",cell death / cell viability,MRC5 cells [2],"rapid, dose-dependent, cell death"
same,effect of limited serum treatment on sensitivity to the peptide,MRC5 cells [1]; FIG. 9,Resistance
same,cell death (possibly by apoptosis),"MRC5 cells [1]; serum starved cell lines, FIG. 8",caused rapid cell death
RVRYSRDQLLDL [wheat eIF4G(62-73)],binding result,recombinant human eIF4E [12],binds
KKRYDREFLLGF (also called human eIF4G413-424) [human eIF4G(569-580)],binding result,recombinant human eIF4E [12],binds
B1,binding result,recombinant human eIF4E [13],no binding (tested: 0.2 mM peptide (FIG. 12b legend))
